For series [1], the system named is Mus musculus. In words: Toxicity in Balb/c mouse assessed as adverse effects at 100 mg/kg, iv qd administered as bolus for 5 days measured up to 3 weeks. Details: dose 100 mg/kg, route intravenous. As to conditions: in vivo. The class given is organism-based.
Series [2] has as its system Mus musculus. As to the kind of experiment: Toxicity in Balb/c mouse assessed as change in body weight at 100 mg/kg, iv qd administered as bolus for 5 days measured within 48 hrs relative to control. The class given is organism-based. The conditions noted are these: in vivo. Also noted: dose 100 mg/kg, route intravenous.
Series [3] relates to Mus musculus. As to the kind of experiment: Toxicity in Balb/c mouse assessed as adverse effects at 100 mg/kg, iv qd administered as bolus for 5 days. The class given is organism-based. Details: dose 100 mg/kg, route intravenous. As to conditions: in vivo, 120 h.
The test system of series [4] is PC-3. In words: Ratio of compound IC50 to emetine IC50 for human PC3 cells measured on day 5 at pH <7 by MTT assay. The class given is functional. Background: Tetrazolium assays rely on reduction of a dye to a coloured formazan, in cell work by metabolically active cells.
Series [5] deals with PC-3. As to the kind of experiment: Ratio of compound IC50 to emetine IC50 for human PC3 cells measured on day 5 at pH 7.4 by MTT assay. The class given is functional.
Series [6] can be described thus: Prodrug activation in phosphate buffer assessed as emetine formation up to 48 hrs at pH 5.5 by HPLC analysis. The conditions noted are these: pH 5.5, 48 h.
A short description of series [7]: Chemical stability of the compound in phosphate buffer up to 5 days at pH 7.4 by HPLC analysis. The class given is physicochemical. As to conditions: phosphate buffer, pH 7.4; read-out: Stability.
Series [8] concerns PC-3. In words: Cytotoxicity against human PC3 cells measured on day 7 by MTT assay. The class given is functional, cell-based. The conditions noted are these: for IC50: Homo sapiens, PC-3, 168 h.
In series [9] the test system is LNCaP. As to the kind of experiment: Cytotoxicity against human LNCAP cells measured on day 7 by MTT assay. The class given is functional, cell-based. The conditions noted are these: for IC50: Homo sapiens, LNCaP, 168 h.
Series [10] relates to Mus musculus. In words: Toxicity in Balb/c mouse assessed as weight loss at 33 mg/kg, iv qd administered as bolus for 5 days measured within 48 hrs relative to untreated control. The class given is organism-based. Also noted: dose 33 mg/kg, route intravenous. The conditions noted are these: in vivo.
In series [11] the test system is Mus musculus. In words: Toxicity in Balb/c mouse assessed as weight loss at 33 mg/kg, iv qd administered as bolus for 5 days measured within 24 hrs (reference value: 1.7%). The class given is organism-based. Also noted: dose 33 mg/kg, route intravenous. As to conditions: in vivo.
In series [12] the test system is Mus musculus. In words: Toxicity in Balb/c mouse assessed as lethargy at 33 mg/kg, iv qd administered as bolus for 5 days measured within 48 hrs. The class given is organism-based. Details: dose 33 mg/kg, route intravenous. As to conditions: in vivo.
The subject of series [13] is Mus musculus. In words: Toxicity in Balb/c mouse assessed as mortality at 33 mg/kg, iv qd administered as bolus for 5 days measured up to 5 days. The class given is organism-based. Details: dose 33 mg/kg, route intravenous. As to conditions: in vivo, 120 h.
In series [14] the test system is Mus musculus. As to the kind of experiment: Toxicity in Balb/c mouse assessed as mortality at 100 mg/kg, iv administered as bolus measured within 48 hrs. The class given is organism-based. Also noted: dose 100 mg/kg, route intravenous. The conditions noted are these: in vivo.
Series [15] concerns PC-3. As to the kind of experiment: Cytotoxicity against human PC3 cells by MTT assay. The class given is functional, cell-based. The conditions noted are these: TDE = time-dependent effect.
For series [16], the system named is DU-145. In words: Cytotoxicity against human DU145 cells by MTT assay. The class given is functional, cell-based. As to conditions: TDE = time-dependent effect.
In series [17] the test system is DU-145. In words: Cytotoxicity against human DU145 cells measured on day 7 by MTT assay. The class given is functional, cell-based.
Series [18] has as its system LNCaP. In words: Cytotoxicity against human LNCAP cells by MTT assay. The class given is functional, cell-based. The conditions noted are these: TDE = time-dependent effect.
In series [19] the test system is DU-145. As to the kind of experiment: Cytotoxicity against human DU145 cells measured on day 5 by MTT assay. The class given is functional, cell-based.
In series [20] the test system is DU-145. In words: Cytotoxicity against human DU145 cells measured on day 3 by MTT assay. The class given is functional, cell-based.
In series [21] the test system is PC-3. As to the kind of experiment: Cytotoxicity against human PC3 cells measured on day 3 by MTT assay. The class given is functional, cell-based.
Series [22] relates to PC-3. In words: Cytotoxicity against human PC3 cells measured on day 5 by MTT assay. The class given is functional, cell-based.
For series [23], the system named is LNCaP. In words: Cytotoxicity against human LNCAP cells measured on day 3 by MTT assay. The class given is functional, cell-based.
Series [24] deals with LNCaP. In words: Cytotoxicity against human LNCAP cells measured on day 5 by MTT assay. The class given is functional, cell-based.

A word on the IC50: it is the concentration that gives 50% inhibition. Read a high IC50 as weaker potency in that assay.

Structures are written as SMILES. Activity calls are given as the source filed them. The calls are words filed in the database; no cut-off is given here.

Turning to `CC[C@H]1CN2CCc3cc(OC)c(OC)cc3[C@@H]2C[C@@H]1C[C@@H]1c2cc(OC)c(OC)cc2CCN1C(=O)/C=C(/C)C(=O)[O-].[Na+]`, the Activity entry in series [1], in series [2] and in [3] was “Non-toxic” in each case. The “Ratio IC50” value is reported as 2.5 in series [4] and 16.8 in series [5]. Besides, the Drug metabolism entry in [6] is “Active”. Moreover, in series [7], the remaining at 120 h came to 100%. The half-inhibitory concentration (IC50) in series [8] was found to be 428 nM; in series [9] it was 458 nM.

Regarding `CC[C@H]1CN2CCc3cc(OC)c(OC)cc3[C@@H]2C[C@@H]1C[C@H]1NCCc2cc(OC)c(OC)cc21.Cl.Cl` [EMETINE HYDROCHLORIDE], the Activity is 3.6% in [10]; 4.5% in [11]; “Toxic” in series [12]; “Non-toxic” in [13]; “Toxic” in series [14]; “tde” in series [15]. Besides, the Activity result in series [16] was “tde”; in series [17] it was “Dose-dependent effect”; in series [18], “tde”; in [19], “Dose-dependent effect”; in series [20], “Dose-dependent effect”; in series [8], “Dose-dependent effect”. In addition, the Activity result in series [21], in [22], in series [9], in series [23] and in [24] was “Dose-dependent effect” in each case. Further, the IC50 in series [17] (DU-145, 168 h) turned out to be 23.7 nM; in series [19] (DU-145, 120 h), 25.3 nM; in series [20] (DU-145, 72 h), 32.9 nM; in series [8], 29.4 nM; in series [21] (PC-3, 72 h) it was 35.1 nM; in series [22] (PC-3, 120 h) it was 26.8 nM. The IC50 in [9] is 31.6 nM; in [23] (72 h) it was 37.9 nM.

For the molecule `CC[C@H]1CN2CCc3cc(OC)c(OC)cc3[C@@H]2C[C@@H]1C[C@@H]1c2cc(OC)c(OC)cc2CCN1C(=S)[S-].[Na+]`, the Activity in series [10] is reported as 0.67%; in series [11], 2%; in series [12], “Non-toxic”; in [13], “Non-toxic”; in series [1], “Non-toxic”; in series [2], “Non-toxic”. In addition, the Activity result in [3] is reported as “Non-toxic”. The entries for the “Ratio IC50” value in [4] and in series [5] were 1.9 and 16.5, respectively. Moreover, in [7], the remaining at 120 h was found to be 100%. Besides, the IC50 was 87 nM in series [8] and 79 nM in [9]. In series [22], the result was Active.
